# Laboratory results taken from patent US11224624B2, “Modulation of microbial synthesis of 4-etylphenol and 4-ethylphenyl sulfate in behavior and disease” (California Institute of Technology, priority 2017, dated 2022).
# Tests used:
# Wildtype mice [1] = assay: Light dark box, mice injected with 4EPS; assay type: in vivo, mouse; conditions: 30 mg/kg 4EPS potassium salt i.p. daily, 3 to 6 weeks of age, vs saline
# Description: (§1) Wildtype mice were injected intraperitoneally (i.p.) with saline or 30 mg/kg 4EPS potassium salt daily from 3 to 6 weeks of age and tested for anxiety in the elevated plus maze (FIG. 4A-C), light dark box (FIG. 4D-F), and open field arena (FIG. 4G-I) assays.
# Wildtype mice [2] = assay: Elevated plus maze, mice injected with 4EPS; assay type: in vivo, mouse; conditions: 30 mg/kg 4EPS potassium salt i.p. daily, 3 to 6 weeks of age, vs saline
# Description: as §1
# Wildtype mice [3] = assay: Open field arena, mice injected with 4EPS; assay type: in vivo, mouse; conditions: 30 mg/kg 4EPS potassium salt i.p. daily, 3 to 6 weeks of age, vs saline
# Description: as §1
# wild-type mice = assay: Open field exploration and pre-pulse inhibition assays, wild-type mice injected with 4EPS (Example 1); assay type: in vivo, mouse; conditions: 30 mg/kg 4EPS potassium salt i.p. daily from 3 to 6 weeks of age vs saline, n=10/group
# Description: To measure effects of 4EPS on wild-type mice, the wild-type mice were injected intraperitoneally (i.p.) with saline or 30 mg/kg 4EPS potassium salt daily from 3 to 6 weeks of age. Anxiety-like behavior based on center duration (See FIG. 1B) and locomotor behavior (See […]) were measured in the open field exploration assay. n=10/group. Furthermore, the potentiated startle reflex was measured in the pre-pulse inhibition (PPI) assay, and measurements were taken of startle (Vmax) (FIG. 1C) and PPI % (FIG. 1D). n=10/group.
# [4] = 4EP to 4EPS conversion by cytosolic fractions from tissues of colonized mice; assay type: in vitro ADME, mouse; conditions: colon and liver cytosolic fractions of colonized mice, FIG. 11E
# Description: 4EP to 4EPS conversion was measured by cytosolic fractions from various tissues of colonized mice (FIG. 11E).
# [5] = biological target: Sult1A1 (sulfotransferase family 1A member 1) (Homo sapiens, UniProt P50225); assay: R&D SYSTEMS sulfotransferase assay, Sult1A1 modification of 4EP to 4EPS; assay type: biochemical; conditions: in vitro, FIG. 11C
# Description: Using R&D SYSTEMS Universal Sulfotransferase Assay Kit™, sulfation of 4-ethylphenol (4EP) or para-cresol (PC) was determined colorimetrically (FIG. 11A). Samples from the assay were pooled and analyzed by liquid chromotography mass spectrometry (LCMS) for the confirmation that 4EPS and PCS are present (FIG. 11B).
# An R&D SYSTEMS assay was used to determine whether quercetin and curcumin can inhibit Sult1A1 (sulfotransferase family 1A member 1, an enzyme that catalyzes sulfate conjugation) modification of 4EP to 4EPS (FIG. 11C). […] Accordingly, it is contemplated that quercetin and curcumin in accordance with some embodiments herein can inhibit the production of 4EPS in a subject in need thereof.
# Sult1A1 (sulfotransferase family 1A member 1), sequence (P50225 whole entry, species assumed): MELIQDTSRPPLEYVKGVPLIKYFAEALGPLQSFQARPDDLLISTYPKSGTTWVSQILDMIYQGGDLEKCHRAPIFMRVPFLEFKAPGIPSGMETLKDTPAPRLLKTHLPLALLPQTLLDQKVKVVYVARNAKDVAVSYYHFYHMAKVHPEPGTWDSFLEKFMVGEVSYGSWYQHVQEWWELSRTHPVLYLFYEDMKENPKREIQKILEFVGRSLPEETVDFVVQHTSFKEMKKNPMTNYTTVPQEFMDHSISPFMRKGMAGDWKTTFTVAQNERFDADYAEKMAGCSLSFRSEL
smiles,measurement,setting,value
"CCc1ccc(OS(=O)(=O)[O-])cc1.[K+] [4EPS, 4-ethylphenyl sulfate]",frequency in the light (light dark box),Wildtype mice [1],decreased
same,total duration in the light (light dark box),Wildtype mice [1],decreased
same,duration in the open (elevated plus maze),Wildtype mice [2],decreased
same,total terminus duration (elevated plus maze),Wildtype mice [2],decreased
same,distance moved (open field arena),Wildtype mice [3],comparable to saline-injected mice
same,total duration in center (open field arena),Wildtype mice [3],decreased
same,"anxiety behaviors (open field center duration, startle, PPI)",wild-type mice,significantly increased anxiety behaviors
"CCc1ccc(O)cc1 [4EP, 4-ethylphenol]",conversion of 4EP to 4EPS,[4],Substantial conversion
O=c1c(O)c(-c2ccc(O)c(O)c2)oc2cc(O)cc(O)c12 [quercetin],inhibition of sulfation of 4EP,[5],inhibit
COc1cc(/C=C/C(=O)CC(=O)/C=C/c2ccc(O)c(OC)c2)ccc1O [curcumin],inhibition of sulfation of 4EP,[5],inhibit
